This note sets out measurements from patent US20260223849A1, “FUNGICIDAL COMBINATION” (UPL MAURITIUS LIMITED, priority 2023, published 2026).

In this assay the test system is Zymoseptoria tritici (Septoria tritici). Kind of assay: Efficacy against Zymoseptoria tritici (SEPTTR) on wheat, two applications (stages A and B). It is filed as in vivo. Particulars: prothioconazole 520 mL/ha (130 g A/ha), fluxapyroxad 1424 mL/ha (89 g A/ha). How it is done:
The following formula was used to calculate the expected activity of mixtures containing active ingredients, A and B:
[formula] • where A=observed efficacy of active ingredient A at the same concentration as used in the mixture. • B=observed efficacy of active ingredient B at the same concentration as used in the mixture.
In the Colby method, the expected (or predicted) response of a combination of fungicides is calculated by taking the product of the observed response for each individual component of the combination when applied alone divided by 100 and subtracting this value from the sum of the observed response for each component when applied alone. An unexpected enhancement in efficacy of the combination is then determined by comparing the observed response of the combination to the expected (or predicted) response as calculated from the observed response of each individual component alone. If the observed response of the combination is greater than the expected (or predicted) response, or stated conversely, if the difference between the observed and expected response is greater than zero, then the combination is said to be synergistic or unexpectedly effective.
Efficacy of the combination of prothioconazole and fluxapyroxad was determined against Zymoseptoria tritici (Septoria tritici) in wheat crop. The actives prothioconazole and fluxapyroxad were tank mixed and applied as per the table below. Prothioconazole and fluxapyroxad were emulsifiable concentrate formulations with formulation concentrations of 250 g/L and 62.5 g/L, respectively. The applications were made twice at stages ‘A and ‘B’. Stage A was the time at which the first node was at least 1 cm above tillering node (Feekes 6.0=First node visible). Stage ‘B’ was the Flag leaf stage, wherein the flag leaf fully unrolled and ligule was visible (Feekes 9.0=Flag leaf). Applications were made at stage B which was 18 days after application A. The observations were made at 19 DA-A (19 days after application-A) as observed in table 1 (b) and at 23 DA-B (23 days after application B) as observed in Table 1 (c).

Where [1] appears, read: 19 DA-A (19 days after application A).
Setting [2] is: 23 DA-B (23 days after application B).

As to `Cn1cc(C(=O)Nc2ccccc2-c2cc(F)c(F)c(F)c2)c(C(F)F)n1` [Fluxapyroxad, 3-(difluoromethyl)-1-methyl-N-(3′,4′,5′-trifluorobiphenyl-2-yl) pyrazole-4-carboxamide], the “% Observed Control of Septoria tritici” value under setting [1] came to 25.6% and the “% Observed Control of Septoria tritici” value under setting [2] worked out at 37.8%.

As to `OC(Cc1ccccc1Cl)(Cn1[nH]cnc1=S)C1(Cl)CC1` (stereo not shown) [Prothioconazole, 2-[2-(1-chlorocyclopropyl)-3-(2-chlorophenyl)-2-hydroxypropyl]-1,2-dihydro-3H-1,2,4-triazole-3-thione], the “% Observed Control of Septoria tritici” value runs as follows: under setting [1], 23.7%; under setting [2], 20.0%.
